Entries after “also recorded” stand apart in the source; their conditions may differ.

In data set [1] the test system is maximal electroshock (MES) test. Particulars: rat, in vivo, po; cited from earlier work.
Data set [2] deals with motor performance (rotarod test). Put plainly: Neurological motor dysfunction tests (accelerating rotarod, observation for sedation). Particulars: for motor performance, time to fall off the rotarod: n=6, vehicle 118.0±2.3; for effect on motor performance (rotarod test) compared to vehicle: highest doses tested (VPA 400, DID 90 mg kg^−1 i.p.), p>0.05, n=6; for neurological motor dysfunction or sedation at the highest drug dose tested: normal rats. As for the experimental part:
On the day of testing, a baseline response was obtained, and rats were subsequently administered drug or vehicle. […] In addition, we examined our rats individually for signs of motor dysfunction and sedation as assessed by posture and gate during spontaneous and induced movement, grooming, chewing, stepping reflex, and startle reflex evoked by tapping on the cage.
For each drug and dose, attenuation of tactile allodynia (threshold measured in g) was measured. […] These areas under the response curve values for every group of rats per dose were evaluated against vehicle treatment using the nonparametric Wilcoxon one tailed test (dose of drug tested vs. vehicle on the same treatment). […] A p value <0.05 was considered statistically significant.
(In general: Falling from the rotarod earlier than controls is read as motor impairment.)

In data set [3] the test system is tactile allodynia in rats with SNL neuropathy. In words: Tactile allodynia (von Frey filaments) in the spinal nerve ligation (SNL) model of neuropathic pain. The data set is classed as in vivo, rat. How it is done:
The effect on neuropathic pain (tactile allodynia) was measured 5-6 days following operation as disclosed above. Rats responding to mechanical stimuli of 10 g or less (in the operated leg) were eligible for the study and were included in the drug administration regime.
Briefly, under ketamine-xylazine anesthesia the rat was placed in a prone position and the left paraspinal muscles were separated from spinous processes at the L4-S2 level. Part of the L6 transverse process was removed and the L4-L6 spinal nerves were identified. The L5-L6 spinal nerves were isolated and tightly ligated and cut, distal to the dorsal root ganglion and proximal to the formation of the sciatic nerve. Following complete homeostasis the wound was sutured.
A volume of 4 ml/kg (volume of injected suspension/rat body weight) was then injected to the rats. […] The three drugs and the control vehicle were administered i.p. (intraperitoneally) to rats at postoperative days 7, 14 and 21 in a double blind randomized crossover manner.
The rat was placed on a metal mesh floor covered with a transparent plastic dome, a period of acclimatization was allowed prior to testing. VFFs were applied from underneath the mesh floor to the plantar surface of the foot. Each trial consisted of repeated applications of each of the VFFs in an ascending order for 5 times, each for a period of 1 second. testing between two consecutive ascending VFFs was separated by period of 2 min. If the rat withdrew the foot at least 3 times out of 5 at a specific VFF no further ascending filaments were tested and this filament was considered as a withdrawal threshold (response). Mechanical stimulus trials with the series of ascending VFF were repeated 2 times for a given time point. The repeated measurements were averaged and taken as the paw withdrawal threshold on a given time point.
The absolute threshold and the difference in the allodynic threshold (time point minus baseline) values were tested using Mann-Whitney Test and Kruskal-Wallis Nonparametric test (two tailed) followed by Dunn's Multiple comparison test. The ED50 (median effective dose) was calculated by using Probit analysis method.
Briefly, under ketamine-xylazine anesthesia (85 mg kg^−1, i.p and 13 mg kg^−1, i.p, respectively) rats were placed in a prone position and paraspinal muscles on the left were separated from the L4-S2 spinous processes. Part of the L6 transverse process was removed and the underlying L4-L6 spinal nerves were identified. The L5 and L6 spinal nerves were isolated, tightly ligated with 5-0 silk, and cut just distal to the ligature. The ligature was approximately 8 mm distal to the corresponding dorsal root ganglion (DRG). Following complete homeostasis the wound was sutured in layers, the skin closed with Michel clips, topical bacteriostatic power was applied, and 20000 units of duplo-penicillin was injected intramuscularly (i.m.).
We used a set of 9 nylon von Frey monofilaments (VFF, Semmes-Weinstein monofilaments, Stoelting, Wood Dale, Ill., USA) to quantify foot withdrawal in response to normally innocuous tactile stimuli. […] Forces were calibrated by lowering filaments onto the pan of an electronic balance until they just bent.
Rats were placed on a raised wire mesh screen (gaps 4 mm×4 mm), which allowed access to the plantar surface of the hindpaw from below. They were covered with a transparent plastic dome, 13 cm high, which prevented rearing on the hindlimbs. A period of 20 min was allowed for acclimation prior to sensory testing. The mid-plantar hindpaw skin just caudal to the footpads, half way between medial and lateral edges of the foot, was subjected to a series of 5 brief probes, spaced at about 1 s. Each such stimulus was sufficient to just bend the filament. Testing began with the filament with the weakest initial bending force (0.6 g). […] Response threshold was the bending force of the first monofilament in the series that evoked a criterion ≧⅗ responses.

The subject of data set [4] is neuropathic pain due to spinal cord injury. Particulars: double-blind placebo-controlled trial; cited from earlier work.

As to `CC(C)C(C(N)=O)C(C)C` [DID, diisopropylacetamide], the MES-ED50 in data set [1] was 51 mg/kg. In addition, the “motor performance, time to fall off the rotarod” value in data set [2] (DID 90 mg kg^−1 i.p., 120 min after dosing) is 103.8 ± 22.3 s. Also, in data set [2], the “effect on motor performance (rotarod test) compared to vehicle” value is reported as “no significant effect” and the “neurological motor dysfunction or sedation at the highest drug dose tested” value is reported as “not sufficient to cause neurological motor dysfunction or sedation”. In addition, the “antiallodynic effect / effectiveness for treating neuropathic pain” value in data set [3] (rat, in vivo) is listed as “effective for treating neuropathic pain”. In addition, in data set [3] (rat, in vivo, ip), the “ED50 (tactile allodynia)” value is 58 mg/kg, the SNL-ED50 was 58 mg/kg, the “dose dependence of the antiallodynic effect” value is “dose-related antiallodynic activity” and the “lowest effective dose (significant increase of the allodynic threshold vs vehicle)” value stood at 20 mg/kg. Moreover, in data set [3] (rat, in vivo, ip), the “rats with no response to 15 g or above VFF at the highest dose tested” value came out at 63% and the “time of maximal effect after administration” value was determined as 120 min.

As usually defined, the ED50 is the dose that gives a 50% effect, or the effect in half of the subjects. As for `CCCC(CCC)C(=O)O` [VPA, Valproic acid, reference compound], the “pain relief versus placebo” value in data set [4] is “no difference between VPA and placebo in relieving pain”. Also, the “motor performance, time to fall off the rotarod” value in data set [2] (VPA 400 mg kg^−1 i.p., 60 min after dosing) turned out to be 96.8 ± 23.7 s. Moreover, in data set [2], the “effect on motor performance (rotarod test) compared to vehicle” value is on record as “no significant effect” and the “neurological motor dysfunction or sedation at the highest drug dose tested” value was “not sufficient to cause neurological motor dysfunction or sedation”. Besides, in data set [3] (VPA 400 mg kg^−1 i.p.), the “rats relieved from tactile allodynia at the highest dose tested” value is given as 88%. In data set [3] (i.p., rat), the “dose dependence of the antiallodynic effect” value is listed as “in a dose dependent manner; also recorded: in a dose-dependent manner”, the “lowest effective dose (significant increase of the allodynic threshold vs vehicle)” value is 300 mg/kg and the “time of maximal effect after administration” value came to 60 min. Also, the “ED50 (tactile allodynia)” value in data set [3] (i.p., rat, 60 min after dosing) came to 269 mg/kg. Further, the SNL-ED50 in data set [3] (i.p., rat, 60 min post injection, DID at 120 min) was 269 mg/kg. Besides, in data set [3] (ip, 1 h, i.p., rat, 60 min after administration, protected = threshold of at least 15 g, read-out: ED50 (tactile allodynia threshold)), the ED50 was found to be 269 mg/kg.

The record behind these values is patent US20100160443A1, “COMPOUNDS USEFUL FOR TREATING NEUROLOGICAL DISORDERS” (Yissum Research Development Company of The Hebrew …, priority 2003, published 2010).
